This note sets out measurements from patent publication US6022885A, “Pyrrolidine and thiazole derivatives with antibacterial and . metallo-.beta-lactamase inhibitory properties” (SmithKline Beecham p.l.c., priority 1995, dated 2000).

Read-outs that look alike come from different tables or passages of the source.

In test [1] the target is B. fragilis CfiA metallo-β-lactamase (Bacteroides fragilis, UniProt P25910). Nature of the test: I50 screen, nitrocefin reporter substrate. It is filed as biochemical. Conditions: 25 mM PIPES pH 7, 37° C., nitrocefin 91 μM, 5 minute preincubation, Zn^2+ 100 μM. As to the method:
(§1) The inhibitory activity of the compounds of the invention was measured in 25 mM PIPES pH 7 buffer at 10 concentrations (1000, 333, 111, 37, 12.3, 4.1, 1.4 0.46, 0.15 and 0.05 μM) at 37° C. using nitrocefin (91 μM, final concentration) as the reporter substrate. The assays were performed with a 5 minute preincubation of enzyme and inhibitor and were conducted in the presence of added zinc sulphate (Zn^2+ 100 μM, final concentration). The methodology is described in detail in the following references: Payne et al (1991), J. Antimicrob. Chemother., 28:255; Payne et al (1994), Antimicrob. Agents and Chemother., 38:767.

Test [2] addresses T1, Bacillus cereus II metallo-β-lactamase (Bacillus cereus, UniProt P04190).
T1 construct: nitrocefin assay with added zinc
The test can be described thus: I50 screen, nitrocefin reporter substrate. It is filed as biochemical. Conditions: 25 mM PIPES pH 7, 37° C., nitrocefin 91 μM, 5 minute preincubation, Zn^2+ 100 μM. As for the experimental part: as §1

Test [3] addresses T2, Xanthomonas maltophilia L-1 metallo-β-lactamase (Stenotrophomonas maltophilia, UniProt P52700).
T2 construct: nitrocefin assay with added zinc
The test can be described thus: I50 screen, nitrocefin reporter substrate. It is filed as biochemical. To be noted: 25 mM PIPES pH 7, 37° C., nitrocefin 91 μM, 5 minute preincubation, Zn^2+ 100 μM. As for the experimental part:
as §1

The test system of the next test is B. fragilis 262. Nature of the test: Antibacterial activity (MIC) alone and in combination with carbapenem antibiotics, B. fragilis 262. Type of test: cell-based, Bacteroides fragilis. The source says: (§2) Antibacterial activity of compounds of the invention in combination with carbapenem antibiotics against strains of Bacteroides fragllis which produce metallo-β-lactamase:
(§3) [MIC =minimum inhibitory concentration (μg/ml)]

In the next test the test system is B. fragilis 460. Nature of the test: Antibacterial activity (MIC) alone and in combination with carbapenem antibiotics, B. fragilis 460. It is filed as cell-based, Bacteroides fragilis.
Description: as §2, §3

[4] abbreviates: read-out: I50 values against B. fragilis CfiA metallo-β-lactamase.
The mark [5] stands for this setting: I50 values against B. fragilis CfiA metallo-β-lactamase.
Setting [6] is: Bacteroides fragilis, alone, B. fragilis 262, CfiA, read-out: MIC alone.
Where [7] appears, read: Bacteroides fragilis, alone, B. fragilis 460, CfiA, read-out: MIC alone.

Sequence of B. fragilis CfiA metallo-β-lactamase (P25910 19-249): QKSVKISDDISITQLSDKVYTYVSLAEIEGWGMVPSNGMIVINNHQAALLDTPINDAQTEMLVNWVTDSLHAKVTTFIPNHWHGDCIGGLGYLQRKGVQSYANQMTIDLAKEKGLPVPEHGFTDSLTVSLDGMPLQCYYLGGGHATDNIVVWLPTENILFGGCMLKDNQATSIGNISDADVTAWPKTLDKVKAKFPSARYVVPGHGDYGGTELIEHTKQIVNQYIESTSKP
T1 sequence (P04190 31-257): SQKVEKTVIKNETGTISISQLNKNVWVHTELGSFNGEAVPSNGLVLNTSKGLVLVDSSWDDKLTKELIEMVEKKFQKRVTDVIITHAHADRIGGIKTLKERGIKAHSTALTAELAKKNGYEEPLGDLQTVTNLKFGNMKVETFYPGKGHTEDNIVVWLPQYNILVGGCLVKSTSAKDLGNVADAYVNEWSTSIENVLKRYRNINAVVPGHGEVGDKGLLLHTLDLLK
T2 sequence (P52700 34-290): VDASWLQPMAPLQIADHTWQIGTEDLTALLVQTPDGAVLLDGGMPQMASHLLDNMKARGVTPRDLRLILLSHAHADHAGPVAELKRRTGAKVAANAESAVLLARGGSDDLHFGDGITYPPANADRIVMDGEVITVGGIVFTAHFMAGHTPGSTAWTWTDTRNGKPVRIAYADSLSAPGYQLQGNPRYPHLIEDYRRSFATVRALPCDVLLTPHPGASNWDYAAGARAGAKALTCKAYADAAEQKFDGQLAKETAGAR

Consider `CC1(C)SCN(C(=O)C(CS)Cc2ccccc2)[C@H]1C(=O)O` (stereo partly drawn) [Example 2, 3-[2'(RS)-benzyl-3'-mereaptopropionyl]-4(S)-carboxy-5,5-dimethylthiazolidine], for which the IC50 in test [1] (setting [4]) was under 1 µM.
Same read-out and setting: under `O=C(O)[C@H]1CSCN1C(=O)C(CS)Cc1ccccc1` (single isomer, unassigned) [Example 31, 3-[2'(S or R)-benzyl-3'-mercaptopropionyl]-4(S)-carboxythiazolidine] stands under 500 µM.
`CC(CS)C(=O)N1CCC[C@@H]1C(=O)O` (stereo partly drawn) [Example 4, N-[3'-Mercapto-2'(RS)-methylpropionyl]-D-proline] showed an IC50 in test [1] (setting [5]) of under 500 µM.
As for `CC(CS)C(=O)N1CSC(C)(C)C1C(=O)O` [Example 21, 3-[3'-Mercapto-2'(R)-methylpropionyl]-4(S)-carboxy-5,5-dimethylthiazolidine], the “activity against Bacillus cereus II metallo-β-lactamase” value in test [2] was “weak but significant activity”. For the same compound, the “activity against Xanthomonas maltophilia L-1 metallo-β-lactamase” value in test [3] is “weak but significant activity”.
`CC1(C)[C@H](C(=O)O)N(C(=O)[C@@H](CS)Cc2ccccc2)C[S+]1[O-]` (single isomer, unassigned) [Example 26]: in test [1] (setting [4]), the IC50 was under 1 µM.
The same measure, in the same setting: as for `CC(CS)C(=O)N1CSC(C)(C)C1C(=O)O` [Example 23, 3-[Mercapto-2'(S)-methylpropionyl]-4(R)-carboxy-5,5-dimethylthiazolidine], the figure is under 500 µM.
By MIC is commonly meant the lowest concentration found to suppress growth. Regarding `C[C@@H](O)[C@H]1C(=O)N2C(C(=O)O)=C(SCCN=CN)C[C@H]12` [Imipenem], the MIC worked out at 4 µg/mL with B. fragilis 262 (setting [6]) and 16 µg/mL in the test with B. fragilis 460 (setting [7]).
Take `CC1(C)SCN(C(=O)[C@@H](CS)Cc2ccccc2)[C@H]1C(=O)O` [Example 20, 3-[2'(S)-benzyl-3'-mercaptopropionyl]-4(S)-carboxy-5,5-dimethylthiazolidine]: the MIC with B. fragilis 262 (setting [6]) and in the test with B. fragilis 460 (setting [7]) was over 512 µg/mL in each case. Further, in test [1] (setting [4]), the IC50 is under 1 µM.
As for `CC1(C)SCN(C(=O)CCS)[C@H]1C(=O)O` [Example 8, 3-[3'-Mercaptopropionyl]-4(S)-carboxy-5,5-dimethylthiazolidine], in test [1] (setting [4]), the IC50 is under 500 µM.
Regarding `CC1(C)SCN(C(=O)C(CS)CCc2ccccc2)[C@H]1C(=O)O` (stereo partly drawn) [Example 32, 3-[2'(RS)-mercaptomethyl-4'-phenylbutanoyl]-4(S)-carboxy-5,5-dimethylthiazolidine], in test [1] (setting [4]), the IC50 is under 500 µM.
Turning to `O=C(O)[C@H]1CSCN1C(=O)C(CS)Cc1ccccc1` (single isomer, unassigned) [Example 30, 3-[2'(R or S)-benzyl-3'-mercaptopropionyl]-4(S)-carboxythiazolidine], the IC50 in test [1] (setting [4]) is under 500 µM.
Still for that read-out and setting: under `O=C(O)[C@H]1CSCN1C(=O)C(CS)Cc1ccccc1` (stereo partly drawn) [Example 18, 3-[2'(RS)-benzyl-3'-mercaptopropionyl]-4(S)-carboxythiazolidine] stands under 500 µM; under `O=C(O)[C@H]1CCCN1C(=O)C(CS)Cc1ccccc1` (stereo partly drawn) [Example 16, N-[2'(PS)-benzyl-3'-mercaptopropionyl]-D-proline], under 500 µM.
Regarding `CC1(C)[C@H](C(=O)O)N(C(=O)[C@@H](CS)Cc2ccccc2)C[S+]1[O-]` (single isomer, unassigned) [Example 27], the “activity against Bacillus cereus II metallo-β-lactamase” value in test [2] was “weak but significant activity”. Further, the “activity against Xanthomonas maltophilia L-1 metallo-β-lactamase” value in test [3] is listed as “weak but significant activity”.
As for `O=C(O)[C@H]1CSCN1C(=O)C(CS)CCCc1ccccc1` (stereo partly drawn) [Example 33, 3-[2'(RS)-mercaptomethyl-5'-phenylpentanoyl]-4(S)-carboxythiazolidine], in test [1] (setting [4]), the IC50 was under 500 µM.
Still for that read-out and setting: as for `CC1(C)SCN(C(=O)C(CS)Cc2ccccc2)[C@@H]1C(=O)O` (stereo partly drawn) [Example 12, 3-[2'(RS)-benzyl-3'-mercaptopropionyl]-4(R)-carboxy-5,5-dimethylthiazolidine], the figure is under 500 µM.
With `CC(CS)C(=O)N1CSC(C)(C)[C@@H]1C(=O)O` (stereo partly drawn) [Example 14, 3-[3'-Mercapto-2'(S)-methylpropionyl]-4(S)-carboxy-5,5-dimethylthiazolidine], the IC50 in test [1] (setting [4]) is under 500 µM.
On the same count and under the same terms, as for `O=C(O)[C@@H]1CCCN1C(=O)C(CS)Cc1ccccc1` (stereo partly drawn) [Example 25, N-[2'(RS)-benzyl-3'-mercaptopropionyl]-L-proline], the figure is under 500 µM.
`C[C@@H](O)[C@H]1C(=O)N2C(C(=O)O)=C(S[C@@H]3CN[C@H](C(=O)N(C)C)C3)[C@H](C)[C@H]12` [Meropenem]: the MIC turned out to be 128 µg/mL with B. fragilis 262 (Bacteroides fragilis, 262, read-out: MIC alone) and 128 µg/mL in the test on B. fragilis 460 (Bacteroides fragilis, 460, read-out: MIC alone).
Take `CC1(C)SCN(C(=O)[C@@H](CS)Cc2ccccc2)[C@@H]1C(=O)O` [Example 28, 3-[2'(S)-benzyl-3'-mercaptopropionyl]-4(R)-carboxy-5,5-dimethylthiazolidine]: in test [1] (setting [4]), the IC50 was under 500 µM.
In the case of `C[C@H](CS)C(=O)N1CCC[C@@H]1C(=O)O` [Example 6, N-(3'-mercapto-2'(S)-methylpropionyl)-D-proline], the IC50 in test [1] (setting [5]) was under 500 µM.
`CC1(C)SCN(C(=O)C(CS)Cc2ccccc2)C1C(=O)O` [Example 19, 3-[2'(R)-benzyl-3'-mercaptopropionyl]-4(S)-carboxy-5,5-dimethylthiazolidine]: the “activity against Bacillus cereus II metallo-β-lactamase” value in test [2] is reported as “weak but significant activity”. For the same compound, the “activity against Xanthomonas maltophilia L-1 metallo-β-lactamase” value in test [3] is “weak but significant activity”.
As for `CC1(C)SCN(C(=O)[C@H](CS)Cc2ccccc2)[C@@H]1C(=O)O` [Example 29, 3-[2'(R)-benzyl-3'-mercaptopropionyl]-4(R)-carboxy-5,5-dimethylthiazolidine], the IC50 in test [1] (setting [4]) was under 500 µM.
As for `C[C@H](CS)C(=O)N1CCC[C@H]1C(=O)O` [captopril, N-(3'-mercapto-2'(S)-methylpropionyl)-L-proline, reference compound], the “activity against Bacillus cereus II metallo-β-lactamase” value in test [2] is on record as “weak but significant activity”. In test [3], the “activity against Xanthomonas maltophilia L-1 metallo-β-lactamase” value was “weak but significant activity”.
